Data published in paper PMC6021681, “Characterization of the Anti-Hepatitis C Virus Activity of New Nonpeptidic Small-Molecule Cyclophilin Inhibitors with the Potential for Broad Anti-Flaviviridae Activity” (Antimicrobial Agents and Chemotherapy, 2018).
Where two headings read alike, the source gives them in different places.

Experiments:
[1] = system: genotype 2a HCV-SGR; experiment: genotype 2a HCV-SGR, transient, luciferase; conditions: read-out: Mean EC50 ± SD, HCV-SGR Genotype 2a
[2] = system: genotype 1b HCV-SGR; experiment: microbe, parasite or virus in culture; format: cell-based, hepatitis C virus
Description: Candidate resistance-associated substitutions (RASs) were introduced into a wild-type genotype 1b HCV-SGR containing the luciferase reporter gene by means of site-directed mutagenesis (QuikChange II XL site-directed mutagenesis kit; Agilent Technologies, Santa Clara, CA, USA). Ninety-six hours after RNA transfection, the susceptibility of the RAS-containing HCV-SGR to compound 31 was determined by measurement of luciferase activity and comparison to wild-type HCV-SGR susceptibility. The replication capacity of the RAS-containing HCV-SGR was assessed by comparing luciferase activities at 4 h and 96 h posttransfection and expressed as a percentage of the wild-type replication capacity.

[3] = system: genotype 5a HCV-SGR; experiment: genotype 5a HCV-SGR, stable Huh7.5 cells, luciferase; format: cell-based, hepatitis C virus; conditions: 48 h, read-out: Mean EC50 ± SD, HCV-SGR Genotype 5a
[4] = system: genotype 1b HCV-SGR I133V; experiment: microbe, parasite or virus in culture; format: cell-based, hepatitis C virus; conditions: for EC50: 96 h, read-out: Mean EC50 ± SD, I133V
Description: (§1) Candidate resistance-associated substitutions (RASs) were introduced into a wild-type genotype 1b HCV-SGR containing the luciferase reporter gene by means of site-directed mutagenesis (QuikChange II XL site-directed mutagenesis kit; Agilent Technologies, Santa Clara, CA, USA). […] The replication capacity of the RAS-containing HCV-SGR was assessed by comparing luciferase activities at 4 h and 96 h posttransfection and expressed as a percentage of the wild-type replication capacity.

[5] = system: genotype 1b HCV-SGR E442G; experiment: microbe, parasite or virus in culture; format: cell-based, hepatitis C virus; conditions: for EC50: 96 h, read-out: Mean EC50 ± SD, E442G
Description: as §1

[6] = system: genotype 1b HCV-SGR L303P; experiment: microbe, parasite or virus in culture; format: cell-based, hepatitis C virus; conditions: for EC50: 96 h, read-out: Mean EC50 ± SD, L303P
Description: as §1

[7] = system: genotype 1b HCV-SGR D320E; experiment: microbe, parasite or virus in culture; format: cell-based, hepatitis C virus; conditions: for EC50: 96 h, read-out: Mean EC50 ± SD, D320E
Description: as §1

[8] = system: genotype 1b HCV-SGR R304W; experiment: microbe, parasite or virus in culture; format: cell-based, hepatitis C virus; conditions: for EC50: 96 h, read-out: Mean EC50 ± SD, R304W
Description: as §1

[9] = system: genotype 1b HCV-SGR K308I; experiment: microbe, parasite or virus in culture; format: cell-based, hepatitis C virus; conditions: for EC50: 96 h, read-out: Mean EC50 ± SD, K308I
Description: as §1

[10] = system: genotype 1b HCV-SGR Y321H; experiment: microbe, parasite or virus in culture; format: cell-based, hepatitis C virus; conditions: for EC50: 96 h, read-out: Mean EC50 ± SD, Y321H
Description: as §1

[11] = system: genotype 1b HCV-SGR(L31V/Y93H); experiment: microbe, parasite or virus in culture; format: cell-based, hepatitis C virus
[12] = molecular target: CypA-NS5A interaction (Homo sapiens, UniProt P62937); format: binding
Chain of CypA-NS5A interaction (P62937 whole entry): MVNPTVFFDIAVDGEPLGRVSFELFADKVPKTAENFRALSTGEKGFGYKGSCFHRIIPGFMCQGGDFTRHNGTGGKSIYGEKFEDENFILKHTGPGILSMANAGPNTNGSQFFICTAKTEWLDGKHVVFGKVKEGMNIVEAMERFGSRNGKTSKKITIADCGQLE

[13] = system: genotype 1a HCV-SGR; experiment: microbe, parasite or virus in culture; format: cell-based, hepatitis C virus
[14] = system: genotype 3a HCV-SGR; experiment: genotype 3a HCV-SGR, stable Huh7.5 cells, luciferase; format: cell-based, hepatitis C virus; conditions: 48 h, read-out: Mean EC50 ± SD, HCV-SGR Genotype 3a
[15] = molecular target: T1, CypA (Homo sapiens, UniProt P62937); experiment: TR-FRET competitive binding assay against labeled CsA
T1 construct: purchased Selcia, Ongar, UK
T1 sequence (P62937 whole entry): as above

[16] = system: chimeric genotype 2a/4a HCV-SGR; experiment: chimeric genotype 2a/4a HCV-SGR, transient, luciferase; conditions: read-out: Mean EC50 ± SD, HCV-SGR Genotype 2a/4a
[17] = system: ZIKV strain MR766; experiment: ZIKV replication in Huh7 cells, RT-qPCR; format: cell-based, Zika virus
[18] = system: Infectious J6/JFH1 HCV genotype 2a/2a; experiment: infectious HCV model, luciferase; format: cell-based, hepatitis C virus; conditions: read-out: Mean EC50 ± SD, Infectious J6/JFH1 HCV genotype 2a/2a
[19] = system: WNV; experiment: WNV replication; format: cell-based, West Nile virus; conditions: 50 μM the highest concentration tested, data not shown
[20] = system: DENV-4 strain Dominica 814669; experiment: DENV replication in Huh7 cells, RT-qPCR; format: cell-based, dengue virus; conditions: RT-qPCR at 48 h postinfection
[21] = system: YFV strain Dakar HD 1279; format: cell-based, yellow fever virus; conditions: Huh7 cells, RT-qPCR at 48 h postinfection; read-out: EC50, YFV replication
[22] = system: Huh7 cells; conditions: read-out: 50% cytotoxic concentration (CC50); flavivirus experiments
[23] = system: JEV; experiment: JEV replication; format: cell-based, Japanese encephalitis virus; conditions: data not shown
[24] = system: full-length infectious HCV genotype 3a (DBN-3acc); experiment: full-length DBN-3acc replication, RT-qPCR; format: cell-based, hepatitis C virus; conditions: at 10 μM, Huh7.5 cells, 120 hours
Text: Madison, Wisconsin, USA).
(Promega) and quantified by RT‐qPCR.
(1 mi n ). […] The percent inhibition of […]

[25] = molecular target: CypA PPIase activity (Homo sapiens, UniProt P62937); experiment: CypA PPIase enzyme assay, chymotrypsin coupled; conditions: read-out: PPIase inhibition IC50, 20°C
Chain of CypA PPIase activity (P62937 whole entry): as above

[26] = system: HCV genotype 1b bicistronic replicon (I389-Neo/NS3-3'/5.1); experiment: genotype 1b HCV-SGR replicon model, stable Huh7.5 cells, RT-qPCR; format: cell-based, hepatitis C virus; conditions: 3 days
Description: of at least two independent measurements.
The cells were treated for
without G418. […] HCV‐SGR RNA
results were normalized to GAPDH.
replicates in cell culture.
antiviral activities. Nat Commun 7:12777.

[27] = system: Huh7.5 cells; experiment: cytotoxicity MTT assay; format: cell-based, Human; conditions: at its effective concentration, 3 days
[28] = molecular target: CypA-NS5A-D320E interaction (Homo sapiens, UniProt P62937); format: binding; conditions: NS5A-D320E-Rluc, CypA-6His on Ni-NTA beads
Chain of CypA-NS5A-D320E interaction (P62937 whole entry, stated change not applied): as the sequence (P62937 whole entry) above

C/C=C/C[C@@H](C)[C@@H](O)[C@H]1C(=O)N[C@@H](CC)C(=O)N(C)[C@H](C)C(=O)N(CC)[C@@H](C(C)C)C(=O)N[C@@H](C(C)C)C(=O)N(C)[C@@H](CC(C)C)C(=O)N[C@@H](C)C(=O)N[C@H](C)C(=O)N(C)[C@@H](CC(C)C)C(=O)N(C)[C@@H](CC(C)C)C(=O)N(C)[C@@H](C(C)C)C(=O)N1C [ALV, Alisporivir, reference compound]
EC50 ([1]; Hepatitis C virus, GETYPE2A, Huh7.5, 48 h): 20 ± 10 nM | EC50 ([2]; Hepatitis C virus, transient, Huh7.5 cells, 96 h posttransfection, luciferase, read-out: Mean EC50 ± SD, HCV-SGR Genotype 1b): 30 ± 10 nM | EC50 ([2]; Hepatitis C virus, wild-type genotype 1b HCV-SGR, read-out: Mean EC50 ± SD, WT): 30 ± 10 nM | EC50 ([3]; Hepatitis C virus): 10 ± 10 nM | EC50 ([4]; Hepatitis C virus): 20 ± 1 nM | EC50 ([5]; Hepatitis C virus): 30 ± 4 nM | EC50 ([6]; Hepatitis C virus): 40 ± 10 nM | EC50 ([7]; Hepatitis C virus): 120 ± 50 nM | EC50 ([8]; Hepatitis C virus): 30 ± 4 nM | EC50 ([9]; Hepatitis C virus): 40 ± 4 nM | EC50 ([10]; Hepatitis C virus): 60 ± 20 nM | EC50 ([11]; Hepatitis C virus, 84 h, read-out: Mean EC50 ± SD, L31V/Y93H): 10 ± 1 nM | disruption of the CypA-NS5A interaction [12]: disrupted | EC50 ([13]; Hepatitis C virus, stable Huh7.5 cells, 48 h, luciferase, read-out: Mean EC50 ± SD, HCV-SGR Genotype 1a): 40 ± 30 nM | EC50 ([14]; Hepatitis C virus): 20 ± 10 nM | Kd ([15]; purified CypA): < 5 nM | EC50 ([16]; Hepatitis C virus, GETYPE2A, Huh7.5, 72 h): 10 ± 2 nM | inhibition of ZIKV replication ([17]; data not shown): did not inhibit | EC50 ([18]; Hepatitis C virus, Huh7.5, 72 h): 30 ± 2 nM

CSc1ccccc1C1CCCN1C(=O)C(NC(=O)NCc1ccc(N)cc1)c1ccccc1 (centres unmarked) [Compound C31]
EC50 ([1]; transient, Huh7.5 cells, 48 h posttransfection, luciferase): 2300 ± 1200 nM | EC50 [19]: > 50000 nM | Fold change, WT ([2]; EC50 relative to wild type): 1.0 | EC50 ([2]; transient, Huh7.5 cells, 96 h posttransfection, luciferase, read-out: Mean EC50 ± SD, HCV-SGR Genotype 1b): 2950 ± 600 nM | EC50 ([2]; wild-type genotype 1b HCV-SGR, read-out: Mean EC50 ± SD, WT): 2950 ± 600 nM | EC50 [20]: 7300 ± 3500 nM | EC50 [3]: 1200 ± 830 nM | Fold change, I133V ([4]; EC50 relative to wild type): 0.9 | EC50 ([4]; genotype 1b HCV-SGR): 2750 ± 200 nM | Fold change, E442G ([5]; EC50 relative to wild type): 1.0 | EC50 ([5]; genotype 1b HCV-SGR): 2990 ± 700 nM | Fold change, L303P ([6]; EC50 relative to wild type): 1.0 | EC50 ([6]; genotype 1b HCV-SGR): 3050 ± 400 nM | Fold change, D320E ([7]; EC50 relative to wild type): 3.0 | EC50 ([7]; genotype 1b HCV-SGR): 8730 ± 1100 nM | Fold change, R304W ([8]; EC50 relative to wild type): 0.8 | EC50 ([8]; genotype 1b HCV-SGR): 2470 ± 200 nM | Fold change, K308I ([9]; EC50 relative to wild type): 0.9 | EC50 ([9]; genotype 1b HCV-SGR): 2590 ± 200 nM | Fold change, Y321H ([10]; EC50 relative to wild type): 1.8 | EC50 ([10]; genotype 1b HCV-SGR): 5410 ± 400 nM | EC50 [21]: 27200 ± 4700 nM | disruption of the CypA-NS5A interaction ([12]; WT-NS5A-Rluc, CypA-6His on Ni-NTA beads): disrupted | EC50 ([13]; stable Huh7.5 cells, 48 h, luciferase, read-out: Mean EC50 ± SD, HCV-SGR Genotype 1a): 3800 ± 1900 nM | CC50 [22]: ≥ 100000 nM | EC50 [14]: 7760 ± 1570 nM | Kd ([15]; read-out: Kd, displacement of labeled CsA from CypA, purified CypA): 105 nM | effect against JEV replication [23]: no effect | EC50 ([16]; transient, Huh7.5 cells, 72 h posttransfection, luciferase): 1400 ± 1100 nM | maximal HCV RNA reduction, DBN-3acc RNA replication [24]: 244 fold | IC50 [25]: 100 ± 10 nM | EC50 [26]: 400 ± 10 nM | EC50 ([17]; Huh7 cells, RT-qPCR at 48 h postinfection): 48000 ± 5600 nM | EC50 ([18]; Huh7.5 cells, 72 h, luciferase): 2800 ± 400 nM | cell viability [27]: did not affect | disruption of the NS5A-D320E interaction with CypA [28]: fully sensitive

Nc1ccc(CNC(=O)NCC(=O)N2CCCC2c2cccc3ccccc23)cc1 (centres unmarked) [Compound C32]
IC50 [25]: 1490 ± 450 nM | EC50 [26]: 9010 ± 2040 nM

CSc1ccccc1C1CCCN1C(=O)C(C)NC(=O)NCc1ccc(N)cc1 (centres unmarked) [Compound C33, 1‐[(4‐aminophenyl)methyl]‐3‐(1‐{2‐[2‐(methylsylfanyl)phenyl]pyrrolidin‐1‐yl}‐1‐oxopropan‐2‐yl)urea]
IC50 [25]: 3080 ± 1170 nM | EC50 [26]: 12900 ± 1200 nM

CSCCC(NC(=O)NCc1ccc(N)cc1)C(=O)N1CCCC1c1ccccc1SC (centres unmarked) [Compound C34]
EC50 [26]: 1630 ± 380 nM

Nc1ccc(CNC(=O)NCC(=O)N2CCCC2c2ccccc2Br)cc1 (centres unmarked) [Compound C35]
EC50 [26]: 4510 ± 520 nM

COc1ccccc1C1CCCN1C(=O)CNC(=O)NCc1ccc(N)cc1 (centres unmarked) [Compound C36]
IC50 [25]: 5030 ± 1810 nM | EC50 [26]: 19700 ± 2900 nM

COC(=O)N[C@H](C(=O)N1CC2(CC2)C[C@H]1c1nc(-c2ccc3c(c2)C(F)(F)c2cc(-c4ccc5[nH]c([C@@H]6[C@H]7CC[C@H](C7)N6C(=O)[C@@H](NC(=O)OC)C(C)C)nc5c4)ccc2-3)c[nH]1)C(C)C [LDV, ledipasvir]
increase in the LDV EC50, L31V and Y93H substitutions ([11]; genotype 1b HCV-SGR, versus wild type, data not shown): 714 fold | EC50 ([13]; Hepatitis C virus, Huh7.5, read-out: EC50 used in the combination study, genotype 1a HCV-SGR): 0.01 nM
